How the values were obtained:
[1] = molecular target: T1, récepteurs β1 (Cavia porcellus, UniProt H0W3H1); test: Antagonism of the positive inotropic effect of isoprenaline on electrically stimulated guinea pig left atrium; parameters: species or system cobaye
T1 construct: sur les récepteurs β1 de l'oreillette gauche de cobaye stimulée électriquement; from tissue; host or cells: isolated guinea pig left atrium, electrically stimulated
From the text: (§1) L'activité pharmacologique des composés de l'invention a été révélée par recherche d'une interférence avec les récepteurs adrénergiques β1, β2 et α in vitro, et confirmée in vivo par les effets antihypertenseurs observés après administration desdits composés chez le rat spontanément hypertendu anesthésié.
(§2) Les essais effectués in vitro correspondent aux protocoles résumés ci-après : • - Récepteurs adrénergiques β1 : on recherche l'antagonisme de l'effet inotrope positif de l'isopré- naline sur les récepteurs β1 de l'oreillette gauche de cobaye stimulée électriquement. • - Récepteurs adrénergiques 6 2 : on recherche l'antagonisme des effets bronchodilatateurs de l'iso- prénaline sur les récepteurs β2 du muscle trachéal de cobaye. • - Récepteurs adrénergiques α : on étudie l'interférence des composés de l'invention sur la contraction du vas déferens isolé du rat, provoquée par des doses cumulatives de noradrénaline.
(§3) Les résultats exprimés par les paramètres usuels de pharmacologie moléculaire, selon les critères utilisés par Van Rossum [Arch. Int.

[2] = molecular target: T2, récepteurs β2 (Cavia porcellus, UniProt Q8K4Z4); test: Antagonism of the bronchodilator effects of isoprenaline on guinea pig tracheal muscle; parameters: species or system cobaye
T2 construct: sur les récepteurs β2 du muscle trachéal de cobaye; from tissue; host or cells: guinea pig tracheal muscle
T2 sequence (Q8K4Z4 whole entry): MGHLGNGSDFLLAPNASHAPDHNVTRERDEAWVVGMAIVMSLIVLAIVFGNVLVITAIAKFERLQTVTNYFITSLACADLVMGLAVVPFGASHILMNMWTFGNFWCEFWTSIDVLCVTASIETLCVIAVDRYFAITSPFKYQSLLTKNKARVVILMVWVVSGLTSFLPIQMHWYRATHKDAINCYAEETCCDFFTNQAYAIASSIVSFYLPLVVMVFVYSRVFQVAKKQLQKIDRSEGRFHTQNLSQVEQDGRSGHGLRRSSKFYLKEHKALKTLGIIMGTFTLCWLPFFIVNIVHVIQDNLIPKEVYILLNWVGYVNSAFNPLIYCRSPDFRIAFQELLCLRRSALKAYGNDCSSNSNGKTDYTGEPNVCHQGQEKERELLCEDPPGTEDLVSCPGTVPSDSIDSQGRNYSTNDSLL
From the text: as §1, §2, §3

[3] = test system: Récepteurs adrénergiques α; test: Interference with the contraction of isolated rat vas deferens caused by cumulative doses of noradrenaline
From the text: as §1, §2, §3

[4] = test system: rat spontanément hypertendu anesthésié; test: Antihypertensive effect in anaesthetised spontaneously hypertensive rats, carotid arterial pressure after i.v. injection; type: in vivo
Method: Les essais in vivo ont été effectués chez des rats mâles (S.H.R. - I.F.F.A.) conformément au protocole résumé ci-après :
Après anesthésie au pentobarbital, on a disposé un cathéter au niveau de l'artère carotide pour enregistrer la pression artérielle, et un cathéter au niveau d'une veine jugulaire pour permettre les injections des composés de l'invention mis en solution dans 0,5 ml de PEG 200 (polyéthylène glycol). La durée de l'injection était de 1 minute.

[5] = Acute oral toxicity in mice; conditions: mouse, in vivo, voie orale, souris, read-out: toxicité aiguë
Method: Ces résultats montrent en particulier le grand intérêt du composé n° 2 qui présente un antagonisme très sélectif du type dualiste vis-à-vis des récepteurs β adrénergiques et fait preuve d'une remarquable activité in vivo chez le rat spontanément hypertendu anesthésié. Il a d'autre part été possible d'évaluer à 120 mg.kg-^1 la toxicité aiguë du composé n° 2 par voie orale chez la souris.

T1 sequence (H0W3H1 1-470): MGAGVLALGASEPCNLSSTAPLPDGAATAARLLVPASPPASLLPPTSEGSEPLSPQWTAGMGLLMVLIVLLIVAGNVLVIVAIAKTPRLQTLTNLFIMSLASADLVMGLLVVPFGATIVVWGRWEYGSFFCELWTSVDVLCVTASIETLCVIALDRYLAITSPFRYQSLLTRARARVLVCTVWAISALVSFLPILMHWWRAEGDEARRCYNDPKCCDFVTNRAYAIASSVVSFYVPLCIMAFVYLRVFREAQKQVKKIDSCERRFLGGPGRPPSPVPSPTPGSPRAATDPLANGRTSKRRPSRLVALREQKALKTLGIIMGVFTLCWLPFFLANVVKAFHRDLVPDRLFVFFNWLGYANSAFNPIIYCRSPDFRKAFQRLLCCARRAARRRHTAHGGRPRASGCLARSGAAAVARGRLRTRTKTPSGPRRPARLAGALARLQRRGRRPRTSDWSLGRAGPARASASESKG

| SMILES | action sur les récepteurs β1 ([1]; 10^-4 M/1) | Récepteurs β2 [2] | Récepteurs α ([3]; noradrenaline) | durée de l'effet antihypertenseur ([4]; dose 20 mg.kg^-1, jugular vein injection in PEG 200, male SHR rats under pentobarbital) [min] | pD'2 ([1]; Récepteurs β1, guinea pig left atrium, isoprenaline, Van Rossum criteria) | Kb ([1]; Récepteurs β1, guinea pig left atrium, isoprenaline, Van Rossum criteria, read-out: pA2 (converted)) [µM] | potentialisation des effets de la noradrénaline ([3]; dose 10^-4 M/1) [%] | durée de l'effet antihypertenseur ([4]; dose 2,5 mg.kg^-1, jugular vein injection in PEG 200, male SHR rats under pentobarbital) [min] | LD50 [5] [mg/kg] |
| --- | --- | --- | --- | --- | --- | --- | --- | --- | --- |
| OC(CN1CCN(c2cccc(C(F)(F)F)c2)CC1)C1=COc2ccccc2O1 (stereo not shown) [exemple 1, 2-méthanoloα-[4-(3-trifluoromethylphenyl)piperazinyl-1] methyl benzo (1,4) dioxine] | très faiblement compétitive | inactif | inactif | 20 |  |  |  |  |  |
| COc1ccccc1N1CCN(CC(O)C2=COc3ccccc3O2)CC1 (stereo not shown) [exemple 2, 2-méthanolα-[4-(2-methoxyphenyl)piperazinyl-1] methyl benzo (1,4) dioxine] |  | inactif |  |  | 4,84 | 0.912 | 180 | > 45 | 120 |
